ChEMBL document CHEMBL6092183, “Rapid Affinity and Microsomal Stability Ranking of Crude Mixture Libraries of Histone Deacetylase Inhibitors” (ACS Med Chem Lett, 2024)
Values joined by “and” are separate entries in the source; they are usually repeats but may differ in a detail not shown here. Equal entries are not always repeated.

How the values were obtained:
Histone deacetylase 2 = Histone deacetylase 2 (Homo sapiens, UniProt Q92769); assay: Inhibition of HDAC2 (unknown origin) incubated for 30 mins by ALIS assay
in vitro = conditions: rat, microsomes
[1] = human, microsomes
Description: Metabolic stability in human liver microsomes

Chain of Histone deacetylase 2 (Q92769 whole entry): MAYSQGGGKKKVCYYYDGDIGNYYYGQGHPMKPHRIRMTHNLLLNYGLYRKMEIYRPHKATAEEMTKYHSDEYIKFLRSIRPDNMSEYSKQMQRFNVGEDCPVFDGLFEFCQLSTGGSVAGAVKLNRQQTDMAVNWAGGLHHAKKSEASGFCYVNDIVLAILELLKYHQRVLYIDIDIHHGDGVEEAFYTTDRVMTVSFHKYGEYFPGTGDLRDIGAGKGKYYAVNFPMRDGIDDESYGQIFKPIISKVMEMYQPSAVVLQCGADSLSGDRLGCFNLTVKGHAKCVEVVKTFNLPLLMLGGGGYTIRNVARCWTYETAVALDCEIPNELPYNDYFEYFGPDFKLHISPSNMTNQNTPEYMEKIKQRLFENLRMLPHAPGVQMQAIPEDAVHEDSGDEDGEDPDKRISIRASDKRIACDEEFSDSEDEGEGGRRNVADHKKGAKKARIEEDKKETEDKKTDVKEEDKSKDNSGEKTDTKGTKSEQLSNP

Row | Compound | IC50 (Histone deacetylase 2) | microsomal CLint at 0.75 h, 0.3 µM (in vitro) [µL/min/mg] | Stability [1]
1 | CCC(=O)CCCCC[C@H](NC(=O)C1CN2CCC1CC2)c1ncc(-c2ccccc2)[nH]1 (some centres not stated) | 146 nM | 134 | –
2 | O=C(NCCCC[C@H](NC(=O)C1C2CNCC21)c1ncc(-c2ccc3ccccc3c2)[nH]1)c1c(O)cccc1F (some centres not stated) | 37 nM | 57.5 | –
3 | CC(=O)N1CC2(CC2C(=O)N[C@@H](CCCCNC(=O)c2c(O)cccc2F)c2ncc(-c3ccc4ccccc4c3)[nH]2)C1 (some centres not stated) | 64.5 nM | 310 | –
4 | O=C(NCCCC[C@H](NC(=O)C1C2CCNC21)c1ncc(-c2ccc3ccccc3c2)[nH]1)c1c(O)cccc1F (some centres not stated) | – | 754 | –
5 | CCCC[C@H](NC(=O)[C@H](CN)c1c[nH]c2ccc(OC)cc12)c1nc(-c2ccc(-c3ccn(C)n3)cc2)c[nH]1 | – | 83.4 | –
6 | O=C(NCCCC[C@H](NC(=O)C1CC12CCNCC2)c1ncc(-c2ccc3ccccc3c2)[nH]1)c1c(O)cccc1F (some centres not stated) | – | 70.1 | –
7 | CCCC[C@H](NC(=O)[C@H](CN)c1c[nH]c2ccc(OC)cc12)c1nc(-c2ccc(C3CC(C)(C)C3)cc2)c[nH]1 | – | 110 | –
8 | O=C(NCCCC[C@H](NC(=O)C1CC12CCCCC2)c1ncc(-c2ccc3ccccc3c2)[nH]1)c1c(O)cccc1F (some centres not stated) | 432 nM | 984 | –
9 | O=C(NCCCC[C@H](NC(=O)C1CN2CCC1CC2)c1ncc(-c2ccc3ccccc3c2)[nH]1)c1c(O)cccc1F (some centres not stated) | 19.1 nM | 1240 | –
10 | CCC(=O)CCCCC[C@H](NC(=O)C1CC12CCCC2)c1ncc(-c2ccccc2)[nH]1 (some centres not stated) | – | 3510 | –
11 | CCC(=O)CCCCC[C@H](NC(=O)C1CC2CCN1CC2)c1ncc(-c2ccccc2)[nH]1 (some centres not stated) | 96.8 nM | 144 | –
12 | CCC(=O)CCCCC[C@H](NC(=O)C1C2COCC21)c1ncc(-c2ccccc2)[nH]1 (some centres not stated) | 295 nM | 75.7 | Stable
13 | CCCC[C@H](NC(=O)[C@H](CN)c1c[nH]c2ccc(OC)cc12)c1nc(-c2ccc(C#N)cc2)c[nH]1 | – | 68.9 | Stable
14 | CCCC[C@H](NC(=O)[C@H](CN)c1c[nH]c2ccc(OC)cc12)c1nc(-c2ccn(C)c(=O)c2)c[nH]1 | 428 nM | 9.9 | –
15 | CS(=O)(=O)N1CC2(CC2C(=O)N[C@@H](CCCCNC(=O)c2c(O)cccc2F)c2ncc(-c3ccc4ccccc4c3)[nH]2)C1 (some centres not stated) | 48 nM and 12 nM | 693 | –
16 | O=C(NCCCC[C@H](NC(=O)C1CCCCC12CC2)c1ncc(-c2ccc3ccccc3c2)[nH]1)c1c(O)cccc1F (some centres not stated) | – | 805 | –
17 | CCCC[C@H](NC(=O)[C@H](CN)c1c[nH]c2ccc(OC)cc12)c1nc(-c2ccc3c(C)noc3c2)c[nH]1 | – | 192 | –
18 | CCC(=O)CCCCC[C@H](NC(=O)CC1CN2CCC1CC2)c1ncc(-c2ccccc2)[nH]1 (some centres not stated) | 211 nM | 91.8 | –
19 | CCC(=O)CCCCC[C@H](NC(=O)C1C2CNCC21)c1ncc(-c2ccccc2)[nH]1 (some centres not stated) | 112 nM | 11.8 | –
20 | CCCC[C@H](NC(=O)[C@H](CN)c1c[nH]c2ccc(OC)cc12)c1nc(-c2ccc(OC)cc2)c[nH]1 | – | 164 | Stable
21 | CCC(=O)CCCCC[C@H](NC(=O)C1CC12CN(C(C)=O)C2)c1ncc(-c2ccccc2)[nH]1 (some centres not stated) | 423 nM | 66.8 | –
22 | CCCC[C@H](NC(=O)[C@H](CN)c1c[nH]c2ccc(OC)cc12)c1nc(-c2cc(C)cc(C)c2)c[nH]1 | – | 51 | –
23 | O=C(NCCCC[C@H](NC(=O)C1C2COCC21)c1ncc(-c2ccc3ccccc3c2)[nH]1)c1c(O)cccc1F (some centres not stated) | 45.4 nM and 89.8 nM | 1150 | –
24 | CCCC[C@H](NC(=O)[C@H](CN)c1c[nH]c2ccc(OC)cc12)c1nc(-c2cccc(C)c2)c[nH]1 | – | 195 | –
25 | O=C(NCCCC[C@H](NC(=O)C1CC12CCCC2)c1ncc(-c2ccc3ccccc3c2)[nH]1)c1c(O)cccc1F (some centres not stated) | 441 nM and 144 nM | 811 | –
